Source: US20230042729A1, “PEPTIDE CONSTRUCTS AND COMPOSITIONS” (DIET4LIFE APS, priority 2019, published 2023)
No end group written: not given here.

Experiments:
carboxypeptidase = experiment: Carboxypeptidase activity in pancreatin (Hippuryl-L-phenylalanine); assay type: biochemical, porcine; details: 0.1 mg/ml pancreatin (FIG. 23D)
From the text: FIG. 23. Enzymes in intestine homogenate and pancreatin.

[1] = biological target: T1, commercial carboxypeptidase inhibitor (CPI) from Potato tuber (UniProt P01075)
T1 sequence: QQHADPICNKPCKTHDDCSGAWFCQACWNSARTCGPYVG

gastric pepsin = gastric pepsin (Homo sapiens, UniProt P0DJD8); experiment: Stability studies of DC7-2: pepsin; assay type: in vitro ADME
[2] = Stability of peptides in intestine homogenate, remaining activity read in intestinal cells; assay type: in vitro ADME, mice; details: octapeptides; % activity left after 30 min incubation in intestine homogenate at 37° C.
Procedure: Small intestines from 20 Swiss-Webster males were homogenized in 350 ml Dulbecco's phosphate-buffered saline (PBS) (pH 7.4) (ThermoFischer Scientific, Denmark) with a IKA® basic 18 Ultra-Turrax tissue homogenizer set a speed 5 followed by filtration using 100 μm nylon mesh filter. Protein concentration was 6 mg/ml using the bicinconinic acid assay (ThermoFischer Scientific, Denmark) and bovine serum albumin as standard. The intestine homogenate was diluted 10 times in HBSS containing 25 mM HEPES (pH 7.4), and further diluted 30×, 90×, 270×, 810× or 2430× before incubation with peptides. All solutions were prewarmed to 37° C. before mixing with peptide solutions.
Peptides were incubated at 10^−5 M with dilutions of small intestine homogenate at 37° C. for 90 minutes with shaking. Reactions were stopped by addition of 1 M phosphoric acid (final 0.4 M, pH˜1.2). Each peptide incubation mix was then neutralized with NaOH to pH 7.2-7.4 and immediately tested for activity in intestinal cells. Control for zero degradation, i.e. addition of 1 M phosphoric acid prior to addition of intestine homogenate, was included for each peptide. […]
(§1) The 20 hexapeptides with systematic N-terminal substitutions (X-KPYIL) (Schafer-N, Denmark) and NT (8-13) was incubated at 10^−6 M in either FBS for 10 minutes or with 270× diluted intestinal homogenate for 30 minutes at 37° C. with shaking. The degradation was stopped with 1 M phosphoric acid. Peptide solutions were neutralized with NaOH (pH 7.2-7.4), diluted and immediately tested for bioactivity using murine intestinal cells. Determination of EC50 for stimulation of cells allowed calculation of recovered peptide.

[3] = Stability of peptides in serum, remaining activity read in intestinal cells; assay type: in vitro ADME, Bovine; details: octapeptides; fraction of peptide activity left after 10 min of incubation in serum at 37° C. compared with undigested sample
Procedure: All peptides were incubated at 10^−5 M with Fetal Bovine Serum (FBS; final concentration of 66.7%) (Sigma Aldrich, Denmark) at 37° C. for 3 hours. The peptide degradation was terminated using 1 M phosphoric acid (final 0.4 M, pH˜1.2) and neutralized to pH 7.2-7.4 with NaOH before testing activity in intestinal cells. As for small intestine homogenates, a zero degradation control was included for each peptide.
DC7-2, NT, DKPYIL and NT-(8-13) (final concentration of 10^−6 M) were incubated either with FBS or with 270× diluted intestinal homogenate at 37° C. for various time points with shaking. Degradation was stopped with 1 M phosphoric acid and the samples were subsequently neutralized and immediately tested with intestinal cells as described above. Control for zero degradation was included for each peptide as above.
as §1

carboxypeptidases = experiment: Stability studies of DC7-2: carboxypeptidases; assay type: in vitro ADME
[4] = Stability of peptides ex vivo in rodent intestine; assay type: in vitro ADME, mouse or rat; details: rodent intestine model of degradation
Procedure: 0,001 mg/ml of the indicated peptides were incubated with pieces of rodent intestine (mouse and rat intestine gave similar results) for up to 10 minutes at 37° C. Recovery of activity was tested with dose-response curves as indicated.
FIG. 9. Stability of peptides in rodent intestine. EC50 values for different peptides and different incubation times were calculated from FIG. 8 and recovered activity plotted as a function of time.
Peptides are degraded by proteases in the gastrointestinal tract. However the speed of this degradation depends on the sequence of the peptide. In order to measure stability of the […] peptide series and to compare with e.g. RRKPYIL, 10 or 50 mg (wet weight) of mouse or rat intestinal tissue (distal ileum) was equilibrated in V-bottom 24 well plates in 800 μl HBSS, 25 mM HEPES, pH 7.4 at 37° C. with shaking at 350 rpm. Identical amounts of different peptides (final concentration of 1 μg/ml) were added to the intestinal pieces and incubation continued. At various time points, 100 μl aliquots were removed and diluted into whey protein hydrolysate (final concentration of 10 mg/ml) to non-specifically compete protease activity. Peptide solutions were then diluted and tested for bioactivity (FIG. 8). Peptides incubated under same conditions but in absence of intestine served as controls (no degradation). […]

chymotrypsin = chymotrypsin (Homo sapiens, UniProt P17538); experiment: Stability studies of DC7-2: chymotrypsin; assay type: in vitro ADME
murine intestinal cells = murine intestinal cells (Mus musculus, UniProt O88319); experiment: Ca2+ flux / calcium response assay (cell signaling activity); assay type: cell-based
Procedure: Ca^2+ Flux Assay/Calcium Response Assay:
Elevation of intracellular calcium level was measured using the fluorescent calcium chelating dye Fluo-4 AM (ThermoFischer Scientific, Denmark). Briefly, cells were grown as a monolayer in 96-well tissue culture plates (Sarstedt, Germany) to near confluence in appropriate growth medium as described in the cell culture section.
All test compounds were dissolved in water, and then diluted in 1×HBSS containing 25 mM HEPES (pH 7.4), 1% BSA and 2% ink. […]

trypsin = trypsin (Homo sapiens, UniProt P07477); experiment: Stability studies of DC7-2: trypsin; assay type: in vitro ADME
[5] = biological target: T2, trypsin inhibitor T9253 from chicken egg white, P01005
T2 chain: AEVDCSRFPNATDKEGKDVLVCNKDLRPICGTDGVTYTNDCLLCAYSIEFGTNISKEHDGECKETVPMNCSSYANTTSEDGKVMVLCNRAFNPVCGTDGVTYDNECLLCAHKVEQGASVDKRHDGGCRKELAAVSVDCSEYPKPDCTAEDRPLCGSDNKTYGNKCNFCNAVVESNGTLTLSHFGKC

[6] = biological target: T3, trypsin inhibitor, T9128 from soybean, P01070
T3 chain: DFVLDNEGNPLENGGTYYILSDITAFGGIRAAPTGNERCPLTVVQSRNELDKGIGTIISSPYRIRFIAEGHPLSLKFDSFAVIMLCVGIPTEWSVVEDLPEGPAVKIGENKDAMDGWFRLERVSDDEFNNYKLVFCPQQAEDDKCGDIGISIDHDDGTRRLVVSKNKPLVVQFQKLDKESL

chymotrypsin, sequence (P17538 19-263): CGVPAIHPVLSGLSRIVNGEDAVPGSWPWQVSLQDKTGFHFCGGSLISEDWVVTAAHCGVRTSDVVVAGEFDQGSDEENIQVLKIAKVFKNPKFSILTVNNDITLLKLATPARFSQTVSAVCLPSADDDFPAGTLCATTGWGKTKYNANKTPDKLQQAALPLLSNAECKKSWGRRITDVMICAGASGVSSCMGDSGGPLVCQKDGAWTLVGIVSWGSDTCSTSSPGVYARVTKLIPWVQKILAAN
murine intestinal cells, sequence (O88319 whole entry): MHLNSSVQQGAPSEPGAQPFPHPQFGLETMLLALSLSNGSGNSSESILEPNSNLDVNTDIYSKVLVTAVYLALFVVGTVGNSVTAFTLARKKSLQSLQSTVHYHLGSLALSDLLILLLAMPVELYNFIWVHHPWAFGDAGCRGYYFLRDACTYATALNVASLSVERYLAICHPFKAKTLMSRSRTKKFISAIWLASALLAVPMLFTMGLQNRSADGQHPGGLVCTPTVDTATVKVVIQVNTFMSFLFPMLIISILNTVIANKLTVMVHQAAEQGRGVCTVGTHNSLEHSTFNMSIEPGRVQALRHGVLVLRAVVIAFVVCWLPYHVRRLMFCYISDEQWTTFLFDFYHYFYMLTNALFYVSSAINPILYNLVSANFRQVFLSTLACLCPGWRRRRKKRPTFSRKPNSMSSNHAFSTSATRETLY
gastric pepsin, sequence (P0DJD8 63-388): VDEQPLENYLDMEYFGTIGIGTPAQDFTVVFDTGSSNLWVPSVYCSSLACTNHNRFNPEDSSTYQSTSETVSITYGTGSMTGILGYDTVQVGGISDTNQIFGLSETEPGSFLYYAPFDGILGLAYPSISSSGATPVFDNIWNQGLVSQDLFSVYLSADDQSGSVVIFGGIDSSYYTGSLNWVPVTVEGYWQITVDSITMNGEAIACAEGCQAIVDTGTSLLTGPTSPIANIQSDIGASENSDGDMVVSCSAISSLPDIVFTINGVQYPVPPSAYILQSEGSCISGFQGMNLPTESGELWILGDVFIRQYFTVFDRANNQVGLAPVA

CPI: commercial carboxypeptidase inhibitor from Potato tuber (QQHADPICNKPCKTHDDCSGAWFCQACWNSARTCGPYVG)
carboxypeptidase activity (carboxypeptidase): efficiently suppressed

carboxypeptidase in porcine pancreatin
carboxypeptidase activity (Hippuryl-L-phenylalanine substrate, slope of kinetic absorbance) [1]: carboxypeptidase activity, which was efficiently suppressed by a commercial carboxypeptidase inhibitor (CPI) from Potato tuber

ASDKPYIL [Peptide 36036, A SDKPYIL]
degradation by gastric pepsin (gastric pepsin): resilient
Stability in intestine (activity remaining) [2]: 6.0%
Stability in serum (activity remaining) [3]: 0.0988
sensitivity to carboxypeptidases (carboxypeptidases): sensitive
stability compared with the active fragment of neurotensin [4]: 100-1000 times
sensitivity to chymotrypsin (chymotrypsin): sensitive
EC50 (murine intestinal cells): 3.51 nM
sensitivity to trypsin (trypsin): sensitive

B1: trypsin in porcine pancreatin (protein)
chain: IVGGYTCAANSIPYQVSLNSGSHFCGGSLINSQWVVSAAHCYKSRIQVRLGEHNIDVLEGNEQFINAAKIITHPNFNGNTLDNDIMLIKLSSPATLNSRVATVSLPRSCAAAGTECLISGWGNTKSSGSSYPSLLQCLKAPVLSDSSCKSSYPGQITGNMICVGFLEGGKDSCQGDSGGPVVCNGQLQGIVSWGYGCAQKNKPGVYTKVCNYVNWIQQTIAAN
trypsin activity (conversion of L-BAPA, slope of kinetic absorbance) [5]: Intestinal and pancreatic trypsin activity was inhibited in a dose-dependent manner by two specific trypsin inhibitors from soybean and chicken egg white, respectively
trypsin activity (conversion of L-BAPA, slope of kinetic absorbance) [6]: Intestinal and pancreatic trypsin activity was inhibited in a dose-dependent manner by two specific trypsin inhibitors from soybean and chicken egg white, respectively
